Assay results reported in patent US9763961B2, “Compositions that modulate the activity of estrogen receptors and estrogen-related receptors and methods for use” (CITY OF HOPE, priority 2005, dated 2017).
Values belong to the compound of their own block, whether it stands above or below them.

Legend:
[1] = target: T1, human ERRα-1 (Homo sapiens, UniProt P11474); experiment: Transient transfection luciferase assay, full length human ERRα with SF1-SV40-Luc reporter in HeLa cells; format: cell-based; settings: HeLa cells
T1 construct: expressed in transfected cells; host or cells: HeLa
T1 sequence (P11474 1-423): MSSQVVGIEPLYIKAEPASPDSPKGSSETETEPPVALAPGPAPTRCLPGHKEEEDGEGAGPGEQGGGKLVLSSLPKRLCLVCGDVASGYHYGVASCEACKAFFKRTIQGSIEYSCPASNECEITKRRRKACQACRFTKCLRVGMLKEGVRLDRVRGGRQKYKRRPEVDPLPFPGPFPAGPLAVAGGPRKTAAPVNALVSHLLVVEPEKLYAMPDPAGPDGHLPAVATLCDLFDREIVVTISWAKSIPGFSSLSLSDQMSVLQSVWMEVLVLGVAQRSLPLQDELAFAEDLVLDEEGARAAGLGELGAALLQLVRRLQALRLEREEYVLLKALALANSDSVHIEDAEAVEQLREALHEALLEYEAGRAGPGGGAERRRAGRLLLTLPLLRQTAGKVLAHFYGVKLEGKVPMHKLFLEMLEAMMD
Procedure: HeLa cells were cultured in MEM Earle's salts medium supplemented with 5% charcoal/dextran-treated fetal bovine serum. Cells were then divided and cultured in 6-well plates until 80% confluence was achieved. The cells were next transfected with 4 μg Lipofectin. An equal amount of total DNA was used in all transfections by including appropriate amounts of the empty vector, pSG5, in addition to specific amounts of pSG5-ERRα and luciferase reporter plasmids (ERRE (ERRα recognizes an ERE half site)-containing reporter and aromatase promoter I.3-containing reporter). Following an overnight incubation, the medium containing Lipofectin and DNA was removed, and the cells cultured in a growth medium containing 5% charcoal/dextran-treated fetal bovine serum with or without ligands. After a 24-hour incubation, the cells was harvested from the plates by scraping, and the luciferase activities in the cell lysates (with the same amounts of protein) was measured according to the manufacturer's instructions (Promega). All experiments were performed in triplicate.
(§1) To evaluate the functional significance of the interaction of chalcones with ERRα, we incubated these compounds with HeLa cells which were transiently transfected with human ERRα expression plasmid and a luciferase reporter plasmid containing SF1 binding site. […] In order to confirm the results above, HeLa cells were transiently transfected with GAL4-human ERRα LBD fusion expression plasmid and a luciferase reporter plasmid containing GAL4 binding site. […] Most of the compounds, however, have similar IC50 value, and have a similar potency.
(§2) Referring to FIG. 1, HeLa cells were cotransfected with pSG5-ERRα (0.5 μg) and luciferase reporter plasmid containing SF1 binding site and SV40 promoter (0.25 μg). The transfected cells were incubated with Compound No. 1-9 for 24 h. After cells were washed with 1× PBS, luciferase activity was measured. Values represent the mean±SD.

[2] = target: T2, ERRβ (Homo sapiens, UniProt O95718); experiment: Transient transfection luciferase assay with pSG5-ERRb and SF1-SV40 reporter in HeLa cells; format: cell-based
T2 construct: expressed in transfected cells; host or cells: HeLa
T2 sequence (O95718 1-433): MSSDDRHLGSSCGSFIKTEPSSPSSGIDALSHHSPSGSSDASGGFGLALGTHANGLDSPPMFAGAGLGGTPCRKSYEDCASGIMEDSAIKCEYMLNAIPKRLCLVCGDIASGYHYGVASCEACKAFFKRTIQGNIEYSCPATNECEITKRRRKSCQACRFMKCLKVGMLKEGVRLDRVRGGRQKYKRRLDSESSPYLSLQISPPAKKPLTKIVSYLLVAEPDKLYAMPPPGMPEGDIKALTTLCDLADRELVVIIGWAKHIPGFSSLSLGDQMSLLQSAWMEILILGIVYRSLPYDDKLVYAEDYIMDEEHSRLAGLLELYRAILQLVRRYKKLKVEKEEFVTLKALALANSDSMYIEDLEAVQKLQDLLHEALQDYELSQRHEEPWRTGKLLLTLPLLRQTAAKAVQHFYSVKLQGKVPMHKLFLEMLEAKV

[3] = target: T3, ERRγ (Homo sapiens, UniProt P62508); experiment: Transient transfection luciferase assay with pSG5-ERRg and SF1-SV40 reporter in HeLa cells; format: cell-based
T3 construct: expressed in transfected cells; host or cells: HeLa
T3 sequence (P62508 1-458): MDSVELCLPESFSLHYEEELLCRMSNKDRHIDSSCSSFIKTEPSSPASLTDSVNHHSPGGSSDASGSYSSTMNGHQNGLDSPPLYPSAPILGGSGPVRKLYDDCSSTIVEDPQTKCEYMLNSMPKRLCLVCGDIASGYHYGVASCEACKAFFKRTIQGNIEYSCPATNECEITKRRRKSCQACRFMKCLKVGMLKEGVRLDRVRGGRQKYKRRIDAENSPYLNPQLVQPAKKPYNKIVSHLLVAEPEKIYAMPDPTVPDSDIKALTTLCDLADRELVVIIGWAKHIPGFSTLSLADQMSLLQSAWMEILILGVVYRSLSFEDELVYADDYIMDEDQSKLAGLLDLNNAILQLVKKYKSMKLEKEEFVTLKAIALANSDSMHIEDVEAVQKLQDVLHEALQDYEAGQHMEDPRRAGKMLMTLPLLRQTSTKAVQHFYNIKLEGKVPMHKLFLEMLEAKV

[4] = target: T4, ERα (Homo sapiens, UniProt P03372); experiment: Transient transfection luciferase assay with pSG5-ERa and ERE-SV40 reporter in HeLa cells, with 100 pM estradiol; format: cell-based
T4 construct: expressed in transfected cells; host or cells: HeLa
T4 sequence (P03372 1-595): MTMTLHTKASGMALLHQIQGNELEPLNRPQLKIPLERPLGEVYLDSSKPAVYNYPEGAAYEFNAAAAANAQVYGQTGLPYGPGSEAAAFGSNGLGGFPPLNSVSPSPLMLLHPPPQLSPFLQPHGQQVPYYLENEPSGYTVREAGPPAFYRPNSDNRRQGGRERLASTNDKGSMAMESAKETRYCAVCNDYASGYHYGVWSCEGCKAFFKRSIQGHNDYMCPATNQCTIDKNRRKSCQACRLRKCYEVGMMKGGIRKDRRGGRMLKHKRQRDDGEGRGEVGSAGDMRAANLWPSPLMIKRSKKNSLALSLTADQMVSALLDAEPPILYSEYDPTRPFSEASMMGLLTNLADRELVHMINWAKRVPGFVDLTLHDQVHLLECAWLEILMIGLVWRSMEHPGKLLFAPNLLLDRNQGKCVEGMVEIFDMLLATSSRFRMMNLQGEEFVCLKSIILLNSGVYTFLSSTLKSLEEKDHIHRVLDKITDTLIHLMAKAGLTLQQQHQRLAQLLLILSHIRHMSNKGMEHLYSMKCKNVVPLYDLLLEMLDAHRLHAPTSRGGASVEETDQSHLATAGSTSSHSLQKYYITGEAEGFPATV

[5] = target: T5, GAL4-human ERRα LBD fusion (Homo sapiens, UniProt P11474); experiment: Transient transfection luciferase assay, GAL4-human ERRα LBD fusion with Gal4-TK-Luc reporter in HeLa cells; format: cell-based; settings: pM-ERRα LBD, 24 h, mean ± SD
T5 construct: GAL4-human ERRα LBD fusion expression plasmid; expressed in transfected cells; host or cells: HeLa
T5 sequence (P11474 193-421 limits assumed): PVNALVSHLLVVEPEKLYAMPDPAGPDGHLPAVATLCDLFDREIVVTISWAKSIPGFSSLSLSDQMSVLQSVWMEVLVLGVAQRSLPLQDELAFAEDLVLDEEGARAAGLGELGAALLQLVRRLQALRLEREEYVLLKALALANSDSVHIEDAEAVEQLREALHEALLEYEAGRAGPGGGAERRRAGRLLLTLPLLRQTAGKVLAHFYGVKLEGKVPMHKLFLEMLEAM
Procedure: Referring to FIG. 2, we have also prepared GAL4-ERRα expression plasmid and luciferase reporter plasmids with GAL4 response element. This is a more sensitive assay method than that using pSG5-ERRα and ERE luciferase reporter plasmids.
as §1
as §2, with “2,” for “1,”, “pM-ERRα LBD” for “pSG5-ERRα”, “GAL4” for “SF1”, “TK” for “SV40”

[6] = target: T6, ERβ (Homo sapiens, UniProt Q92731); experiment: Transient transfection luciferase assay with pCI-ERb and ERE-SV40 reporter in HeLa cells, with 100 pM estradiol; format: cell-based
T6 construct: expressed in transfected cells; host or cells: HeLa
T6 sequence (Q92731 whole entry, species assumed): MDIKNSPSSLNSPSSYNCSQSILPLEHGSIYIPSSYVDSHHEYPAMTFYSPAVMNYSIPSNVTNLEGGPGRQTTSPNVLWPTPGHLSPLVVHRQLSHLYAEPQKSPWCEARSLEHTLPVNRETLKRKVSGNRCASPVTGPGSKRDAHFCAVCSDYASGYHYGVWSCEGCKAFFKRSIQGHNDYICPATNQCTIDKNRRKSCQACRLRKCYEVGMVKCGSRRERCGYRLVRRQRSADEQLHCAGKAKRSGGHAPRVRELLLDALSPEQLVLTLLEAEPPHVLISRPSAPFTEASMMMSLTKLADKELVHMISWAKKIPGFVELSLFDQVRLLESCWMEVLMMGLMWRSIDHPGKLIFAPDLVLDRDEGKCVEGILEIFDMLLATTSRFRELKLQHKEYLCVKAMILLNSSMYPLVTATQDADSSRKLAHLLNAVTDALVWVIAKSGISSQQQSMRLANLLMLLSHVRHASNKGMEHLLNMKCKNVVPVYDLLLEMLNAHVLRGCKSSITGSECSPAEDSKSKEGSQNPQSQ

[7] = system: ER; settings: cited from earlier work
[8] = target: T7, ERRα (Homo sapiens, UniProt P11474); experiment: Relative luciferase activity for ERRα (FIG. 8); format: cell-based; set-up: endogenous in cells; host or cells: SK-BR-3
T7 sequence (P11474 1-423): T1 sequence (P11474 1-423)

[9] = target: T2, ERRβ; experiment: Relative luciferase activity for ERRβ (FIG. 8); format: cell-based
[10] = target: T3, ERRγ; experiment: Relative luciferase activity for ERRγ (FIG. 8); format: cell-based
[11] = HeLa cells, 24 h, average of at least two experiments
[12] = HeLa cells, in the presence of 100 pM of estradiol, 24 h

- Antagonism of constitutive activity of ERRα (in words) ([1]; SF1 binding site reporter, FIG. 1): antagonists of ERRα
- IC50 ([1]; pSG5-ERRα, 24 h, mean ± SD): 8.3 ± 0.4 µM
- IC50 [2, 11]: 6.7 µM
- Antagonistic properties on ERRb (in words) ([2]; transient transfection): showed antagonistic properties
- IC50 [3, 11]: 8 µM
- Antagonistic properties on ERRg (in words) ([3]; transient transfection): showed antagonistic properties
- IC50 [4, 12]: 7.8 µM
- Antagonistic properties on ERa (in words) ([4]; transient transfection): showed antagonistic properties
- IC50 [5]: 2e+06 ± 700000 pM
- IC50 [6, 12]: 15 µM
- Antagonistic properties on ERb (in words) ([6]; transient transfection): showed antagonistic properties
Compound: COc1ccc(C(=O)/C=C/c2ccccc2OC)c(O)c1 [7-2]

Compound: CC/C(=C(/c1ccc(O)cc1)c1ccc(OCCN(C)C)cc1)c1ccccc1 [E-4-OHT]
- Affinity for ER relative to Z-4-OHT [7]: about 5%

Compound: O=C(/C=C/c1ccc(O)cc1)c1ccc(O)cc1O [Compound No. 3-15, 4,2′,4′-trihydroxychalcone]
- Agonist activity on ERRα [8]: agonist of all three forms of ERRs
- Agonist activity on ERRβ [9]: agonist of all three forms of ERRs
- Agonist activity on ERRγ [10]: agonist of all three forms of ERRs
